The source of these data is EP4635950A1, “NOVEL CRYSTAL FORM OF GLP-1 RECEPTOR AGONIST, METHOD FOR PREPARING SAME, PHARMACEUTICAL COMPOSITION THEREOF, AND USE THEREOF” (Hangzhou Zhongmeihuadong Pharmaceutical Co., Ltd., priority 2022, dated 2024).

Usually solubility stands for how much of the substance goes into solution per volume.

≈ marks a conversion by molar mass, not a printed value. Entries after “also recorded” stand apart in the source; their conditions may differ. Where two headings read alike, the source gives them in different places.

Holding throughout (assay type): physicochemical
The nature of series [1]: Pressure stability at 1000 Mpa for 5 minutes (HPLC purity, crystal form). The source says: [table] […] Table E-6: Results of Pressure Stability Determination
Series [2] is described as follows: Crystal form stability on drying or sealed storage. The source says: The 4 metastable crystal forms described in Example 4 had lower crystal form stability than each crystal form described in Example 3.
Series [3] is described as follows: Equilibrium solubility, 24 hours at 37°C in 4 media, with XRPD of residual solid. Particulars: for solubility at 24 h: 37 °C, thermodynamic from solid, read-out: Solubility after 24 h; for Crystal Form: XRPD. On the procedure: After 24 hours, samples were taken and centrifuged for separation. The obtained solids were tested by XRPD, and the supernatants were filtered for solubility testing.

A short description of series [4]: Solid-state stability under long-term and accelerated conditions (HPLC purity, crystal form). The following applies: for Purity (% Area) / purity decrease: 10 days. An excerpt:
[table] […] Table E-3: Results of Solid-State Stability Determination

Series [5] in a line: Suspension competition test of Crystal Form A and Crystal Form G. The following applies: Crystal Form A and Crystal Form G in EtOH and a mixture of MeOH and water, room temperature and 50°C.
A short description of series [6]: Hygroscopicity by dynamic vapor sorption (DVS) at 25°C.
A short description of series [7]: High-humidity stability at 90% RH (HPLC purity, crystal form). Particulars: for Purity (% Area) / purity decrease: 90% RH. The source says:
[table] […] Table E-5: Results of High-Humidity Stability Determination

Series [8] is described as follows: High-temperature stability at 60°C (HPLC purity, crystal form). The following applies: for Purity (% Area) / purity decrease: 60°C. The source says:
[table] […] Table E-4: Results of High-Temperature Stability Determination

Series [9] can be described thus: Crystal form change on heating in the DSC test.
The mark [10] stands for this setting: heated to 120 °C for 10 minutes.

With `O=C(O)c1ccc2nc(CN3CCC(c4cccc(OCc5ccc(C6COC6)cc5F)n4)CC3)n(C[C@@H]3CCO3)c2c1` [Crystal Form A, (S)-2-((4-(6-((2-fluoro-4-(oxetan-3-yl)benzyl)oxy)pyridin-2-yl)piperidin-1-yl)methyl)-1-(oxetan-2-ylmethyl)-1H-benzo[d]imidazole-6-carboxylic acid], the “Purity (% Area)” value in [1] (1000 Mpa, 5 min) is recorded as 97.44 % Area; in series [4] (25°C/60%RH), 97.50 % Area; in [4] (40°C/75%RH), 97.33 % Area; in series [7] (1 Day), 97.77 % Area; in series [7] (10 days), 97.07 % Area; in series [8] (1 day) it was 98.00 % Area. Also, the “Purity (% Area)” value in series [8] (10 days) worked out at 96.98 % Area. In addition, the purity decrease entry was “about 0.7%” in series [1] (1000 Mpa, 5 min); “about 0.8%” in series [4] (accelerated conditions (40°C/75% RH)); “about 0.6%” in series [4] (long-term conditions (25°C/60% RH)); “about 0.3%” in series [7] (1 day); “about 1.0%” in series [7] (10 days); “about 0.1%” in series [8] (1 day). In [8] (10 days), the purity decrease result is “about 1.1%”. Besides, the “Initial Purity (% Area)” value in [1] (initial, before pressing) is recorded as 98.11 % Area; in [4] (initial, before storage) it was 98.11 % Area; in series [7] (initial, before storage), 98.11 % Area; in series [8] (initial, before storage), 98.11 % Area. For the same molecule, the “crystal form change after drying” value in series [2] (dried at 50°C for 3 hours) is “no crystal form change is observed”. Also, the “Whether the Crystal Form Changed” value in series [3] (24 h in FaSSGF) is on record as “YES”. Besides, the “Solubility after 24 h” value in series [3] (FaSSGF) was 200 µg/mL (≈ 341 µM). Also, the solubility at 24 h was 50 µg/mL (≈ 85.2 µM) in series [3] (FaSSIF (fasted-state simulated intestinal fluid), fassif, FaSSIF); 320 µg/mL (≈ 545 µM) in series [3] (FeSSIF (fed-state simulated intestinal fluid), fessif, FeSSIF); less than 100 µg/mL in series [3] (purified water, water, H2O). Moreover, the “Crystal Form” value in [3] (solid after 24 h in FaSSGF) was “a hydrochloride salt was formed”; in series [3] (solid after 24 h in FaSSIF), “Crystal Form A”; in [3] (solid after 24 h in FeSSIF), “Crystal Form A”; in series [3] (solid after 24 h in H2O), “Crystal Form A”. For the same molecule, the crystal form change entry in series [4] (before and after testing, long-term and accelerated conditions) is “no crystal form change was observed”. Also, the “outcome of suspension competition test” value in series [5] is listed as “transforms into Crystal Form G”. Also, in [6], the “Sample Weight Change at 80% RH (%)” value was 0.89%.
In the case of `O=C(O)c1ccc2nc(CN3CCC(c4cccc(OCc5ccc(C6COC6)cc5F)n4)CC3)n(C[C@@H]3CCO3)c2c1` [Crystal Form B, (S)-2-((4-(6-((2-fluoro-4-(oxetan-3-yl)benzyl)oxy)pyridin-2-yl)piperidin-1-yl)methyl)-1-(oxetan-2-ylmethyl)-1H-benzo[d]imidazole-6-carboxylic acid], the “crystal form change after drying” value in [2] (dried at 50°C for 3 hours) is “transforms into an amorphous form; also recorded: convert into an amorphous form”.
`O=C(O)c1ccc2nc(CN3CCC(c4cccc(OCc5ccc(C6COC6)cc5F)n4)CC3)n(C[C@@H]3CCO3)c2c1` [Crystal Form C, (S)-2-((4-(6-((2-fluoro-4-(oxetan-3-yl)benzyl)oxy)pyridin-2-yl)piperidin-1-yl)methyl)-1-(oxetan-2-ylmethyl)-1H-benzo[d]imidazole-6-carboxylic acid]: the “crystal form change on heating” value in [9] (heated to 110°C for 5 minutes) was “transforms into an amorphous form”.
As for `O=C(O)c1ccc2nc(CN3CCC(c4cccc(OCc5ccc(C6COC6)cc5F)n4)CC3)n(C[C@@H]3CCO3)c2c1` [Crystal Form D, (S)-2-((4-(6-((2-fluoro-4-(oxetan-3-yl)benzyl)oxy)pyridin-2-yl)piperidin-1-yl)methyl)-1-(oxetan-2-ylmethyl)-1H-benzo[d]imidazole-6-carboxylic acid], the “crystal form change on heating” value in series [9] (setting [10]) is “converts into an amorphous form”.
On the same count and under the same terms, for `O=C(O)c1ccc2nc(CN3CCC(c4cccc(OCc5ccc(C6COC6)cc5F)n4)CC3)n(C[C@@H]3CCO3)c2c1` [Crystal Form E, (S)-2-((4-(6-((2-fluoro-4-(oxetan-3-yl)benzyl)oxy)pyridin-2-yl)piperidin-1-yl)methyl)-1-(oxetan-2-ylmethyl)-1H-benzo[d]imidazole-6-carboxylic acid] the value was “converts into an amorphous form”.
For `O=C(O)c1ccc2nc(CN3CCC(c4cccc(OCc5ccc(C6COC6)cc5F)n4)CC3)n(C[C@@H]3CCO3)c2c1` [Crystal Form F, (S)-2-((4-(6-((2-fluoro-4-(oxetan-3-yl)benzyl)oxy)pyridin-2-yl)piperidin-1-yl)methyl)-1-(oxetan-2-ylmethyl)-1H-benzo[d]imidazole-6-carboxylic acid], in series [2] (sealed conditions at room temperature for 21 days), the “crystal form change after storage” value is recorded as “transforms into Crystal Form D; also recorded: transformed into stable Crystal Form D”.
Regarding `O=C(O)c1ccc2nc(CN3CCC(c4cccc(OCc5ccc(C6COC6)cc5F)n4)CC3)n(C[C@@H]3CCO3)c2c1` [Crystal Form H, (S)-2-((4-(6-((2-fluoro-4-(oxetan-3-yl)benzyl)oxy)pyridin-2-yl)piperidin-1-yl)methyl)-1-(oxetan-2-ylmethyl)-1H-benzo[d]imidazole-6-carboxylic acid], the “crystal form change after drying” value in series [2] (dried at 50°C for 2 hours) was “transforms into a weakly crystalline state; also recorded: showed a weak crystalline state”.
Regarding `O=C(O)c1ccc2nc(CN3CCC(c4cccc(OCc5ccc(C6COC6)cc5F)n4)CC3)n(C[C@@H]3CCO3)c2c1` [Crystal Form Ix, (S)-2-((4-(6-((2-fluoro-4-(oxetan-3-yl)benzyl)oxy)pyridin-2-yl)piperidin-1-yl)methyl)-1-(oxetan-2-ylmethyl)-1H-benzo[d]imidazole-6-carboxylic acid], in series [9] (setting [10]), the “crystal form change on heating” value is “converts into an amorphous form”.
The same measure, in the same setting: for `O=C(O)c1ccc2nc(CN3CCC(c4cccc(OCc5ccc(C6COC6)cc5F)n4)CC3)n(C[C@@H]3CCO3)c2c1` [Crystal Form J, (S)-2-((4-(6-((2-fluoro-4-(oxetan-3-yl)benzyl)oxy)pyridin-2-yl)piperidin-1-yl)methyl)-1-(oxetan-2-ylmethyl)-1H-benzo[d]imidazole-6-carboxylic acid] the value was “transforms into an amorphous form”.
Consider `O=C(O)c1ccc2nc(CN3CCC(c4cccc(OCc5ccc(C6COC6)cc5F)n4)CC3)n(C[C@@H]3CCO3)c2c1` [Crystal Form K, (S)-2-((4-(6-((2-fluoro-4-(oxetan-3-yl)benzyl)oxy)pyridin-2-yl)piperidin-1-yl)methyl)-1-(oxetan-2-ylmethyl)-1H-benzo[d]imidazole-6-carboxylic acid], for which, in series [9] (heated to 110 °C for 10 minutes), the “crystal form change on heating” value is on record as “transforms into an amorphous form”.
On to `O=C(O)c1ccc2nc(CN3CCC(c4cccc(OCc5ccc(C6COC6)cc5F)n4)CC3)n(C[C@@H]3CCO3)c2c1` [Crystal Form L, (S)-2-((4-(6-((2-fluoro-4-(oxetan-3-yl)benzyl)oxy)pyridin-2-yl)piperidin-1-yl)methyl)-1-(oxetan-2-ylmethyl)-1H-benzo[d]imidazole-6-carboxylic acid], for which the “crystal form change on heating” value in series [9] (setting [10]) is given as “transforms into an amorphous form”.
As for `O=C(O)c1ccc2nc(CN3CCC(c4cccc(OCc5ccc(C6COC6)cc5F)n4)CC3)n(C[C@@H]3CCO3)c2c1` [Crystal Form M, (S)-2-((4-(6-((2-fluoro-4-(oxetan-3-yl)benzyl)oxy)pyridin-2-yl)piperidin-1-yl)methyl)-1-(oxetan-2-ylmethyl)-1H-benzo[d]imidazole-6-carboxylic acid], the “crystal form change on heating” value in series [9] (heated to 105 °C for 10 minutes) is recorded as “transforms into an amorphous form”.
In the case of `O=C(O)c1ccc2nc(CN3CCC(c4cccc(OCc5ccc(C6COC6)cc5F)n4)CC3)n(C[C@@H]3CCO3)c2c1` [Crystal Form N, (S)-2-((4-(6-((2-fluoro-4-(oxetan-3-yl)benzyl)oxy)pyridin-2-yl)piperidin-1-yl)methyl)-1-(oxetan-2-ylmethyl)-1H-benzo[d]imidazole-6-carboxylic acid], the “crystal form change on heating” value in series [9] (setting [10]) is given as “transforms into an amorphous form”.
On the same count and under the same terms, in the case of `O=C(O)c1ccc2nc(CN3CCC(c4cccc(OCc5ccc(C6COC6)cc5F)n4)CC3)n(C[C@@H]3CCO3)c2c1` [Crystal Form O, (S)-2-((4-(6-((2-fluoro-4-(oxetan-3-yl)benzyl)oxy)pyridin-2-yl)piperidin-1-yl)methyl)-1-(oxetan-2-ylmethyl)-1H-benzo[d]imidazole-6-carboxylic acid] it was “transforms into an amorphous form”.
As to `O=C(O)c1ccc2nc(CN3CCC(c4cccc(OCc5ccc(C6COC6)cc5F)n4)CC3)n(C[C@@H]3CCO3)c2c1` [Crystal Form P, (S)-2-((4-(6-((2-fluoro-4-(oxetan-3-yl)benzyl)oxy)pyridin-2-yl)piperidin-1-yl)methyl)-1-(oxetan-2-ylmethyl)-1H-benzo[d]imidazole-6-carboxylic acid], the “crystal form change after drying” value in series [2] (dried at 50°C for 3.5 hours) is “transforms into an amorphous form; also recorded: convert into an amorphous form”.
